pIC50: −log10 of the molar value. Active and inactive are the calls of the source. No cut-off for these calls is given here.

The test system of series [1] is A2780. Kind of series: Antiproliferative activity against human A2780 cells assessed as cell viability incubated for 48 hrs by MTT assay. The format is functional, cell-based. The conditions noted are these: A2780, 48 h. On the technique in general: Formazan colour is commonly taken as a measure of viable cells.
The target in series [2] is T1, Tubulin (Homo sapiens) (UniProt P68371+Q9H4B7+P0DPH7+P68366+Q13509+Q71U36+P04350+Q3ZCM7+P07437+P68363+Q9BQE3+Q6PEY2+Q13885+Q9BVA1+Q9BUF5). The experiment in a line: Induction of microtubule disruption in human A549 cells assessed as shrunken spindle shaped microtubule structure at 5 to 20 uM incubated for 12 hrs by immunofluorescence based laser scanning confocal microscopic analysis. The format is cell-based. The conditions noted are these: dose 5-20 µM.

The subject of series [3] is A2780. The experiment in a line: Antiproliferative activity against human paclitaxel-resistant A2780/TAX cells assessed as cell viability incubated for 48 hrs by MTT assay. It is filed as functional, cell-based. The conditions noted are these: A2780, 48 h.
Series [4] deals with A549. Kind of series: Induction of apoptosis in human A549 cells assessed as cell viability pretreated with ferroptosis inhibitor ferrostatin-1 for 24 hrs followed by incubation with compound at 20 nM and measured after 48 hrs by CCK-8 assay. It is filed as functional, cell-based.
A further series deals with PC-3. The experiment in a line: Antiproliferative activity against human PC-3 cells assessed as inhibition of cell proliferation incubated for 2 hrs by CCK-8 assay. It is filed as functional, cell-based. The conditions noted are these: DDE = dose-dependent effect.
The target of series [5] is T1, Tubulin (Homo sapiens). Kind of series: Induction of microtubule disruption in human A549 cells assessed as abnormal uncondensed cytoplasm at 5 to 20 uM incubated for 12 hrs by immunofluorescence based laser scanning confocal microscopic analysis. The conditions noted are these: dose 5-20 µM. The format is cell-based.
The target in series [6] is T1, Tubulin (Homo sapiens). The experiment in a line: Inhibition of [3H]colchicine binding to tubulin (unknown origin) at 10 uM by competitive binding assay relative to control. The format is protein-complex assay.
Series [7] is described as follows: Half life in ICR mouse at 1 mg/kg, iv single administration measured for 24 hrs post treatment by LC-MS/MS analysis. It is filed as ADME, organism-based. The conditions noted are these: in vivo.
For series [8], the system named is A549. The experiment in a line: Cytotoxicity against human A549 cells assessed as reduction in cell viability. It is filed as functional, cell-based.
A further series deals with HCT-8. The experiment in a line: Antiproliferative activity against human HCT-8 cells assessed as inhibition of cell proliferation incubated for 2 hrs by CCK-8 assay. The conditions noted are these: DDE = dose-dependent effect. It is filed as functional, cell-based.

Broadly, the pIC50 is the negative decadic logarithm of the IC50, by convention in mol/L. What is called inhibition is the share of the control response that was lost under treatment. In general, half-life refers to how long it takes for the measured level to halve. `C=C(c1cc(OC)c(OC)c(OC)c1)c1ccc(OC)c(O)c1NC(=O)CO`: the pIC50 is 7.70 in the series with A2780 [1], 7.40 in the series on A2780 [3] and 8.00 in the series on A549 [8]. For the same compound, the result at Tubulin (Homo sapiens) [2], in the series with A549 [4] and on Tubulin (Homo sapiens) [5] was Active. Moreover, the Activity result in the series on PC-3 and with HCT-8 was “Dde” each time. On Tubulin (Homo sapiens) [6], this compound yielded an inhibition of 85%. Also, the half-life in series [7] was 37.2 min.
